Data as given in paper PMC11770272, “Surface immobilization of single atoms on heteroatom-doped carbon nanospheres through phenolic-mediated interfacial anchoring for highly efficient biocatalysis” (Chemical Science, 2025).

Test system: T1, natural horseradish peroxidase (HRP)
T1 construct: gene PRXC1A
Experiment: steady-state kinetics, absorbance of oxidized TMB at […] nm
Type: biochemical, Armoracia rusticana
Conditions: H2O2 as co-substrate, HAc-NaAc buffer pH 3.6, 37 °C

For `Cc1cc(-c2cc(C)c(N)c(C)c2)cc(C)c1N` [TMB], the Km was 1650 µM.
